Data as given in patent publication US20090055945A1, “Method for Producing Nuclear-Transplanted Egg” (priority 2005, published 2009).

Tests used:
Assay type in all cases: cell-based, mouse
[1] = test system: nuclear transfer oocytes (nuclei from cumulus cells in enucleated oocytes); assay: Expanded blastocyst formation of nuclear transfer oocytes (cumulus cell nuclei)
Method: Production of cloned mice including production of nuclear transfer embryos was carried out according to the method as described in Non-patent Document 5. Briefly, pregnant mare serum gonadotrophin (PMSG) was first administered to 8-weeks-old female B6D2F1 (C57BL/6 XDBA/2) mice (Japan SLC) for superovulation treatment. Human choriogonadotropin (hCG) was administered after 48 hours. Oocytes were collected after 16 hours. Nuclei were removed from the collected unfertilized oocytes in the presence of 5 μg/ml of cytochalasin B using a micromanipulator (enucleation).
Next, cell membranes of cumulus cells from a B6D2F1 mouse as donor somatic cells suspended in a 1.2% polyvinylpyrrolidone (PVP) solution were destroyed using an injection pipette, and the nuclei were injected into the enucleated oocytes using a micromanipulator (nuclear transfer). A piezo drive apparatus (Prime Tech) was used to generate piezo-pulses for penetration of zona pellucida or cell membranes which is required for injection of nuclei.
The thus obtained nuclear transfer oocytes were cultured in a CO2 incubator at 37° C. for 30 minutes to 1 hour. The oocytes were then transferred to an oocyte activation solution (Ca^2+-free CZB medium supplemented with 5 mM strontium chloride (SrCl2) and 5 μg/ml of cytochalasin B (Non-patent Document 10)) containing 0.5, 5, 50 or 500 nM trichostatin A (hereinafter referred to as TSA) to artificially activate the oocytes and initiate the development. Activation of oocytes was confirmed 6 hours after the initiation of activation using pronuclei formation as an index. Activated nuclear transfer oocytes were transferred to KSOM medium (Specialty Media) containing TSA at the same concentration, and cultured for further 14 hours (for 20 hours after the initiation of activation) in the medium. For a control, dimethyl sulfoxide (DMSO), which was used for dissolving TSA, was used in place of TSA to produce the same concentration.
Then, the nuclear transfer embryos at the 2-cell stage were cultured in KSOM medium without TSA until 96 hours after the initiation of activation, and development into expanded blastocysts was observed. The development into expanded blastocyst was confirmed by culturing for 96 hours after the initiation of activation and then observing under a microscope one in which the volume of embryo was increased to result in expansion of the blastocyst and thinning of zona pellucida among blastocysts having blastocoels. 80 or more embryos were examined in each of the experimental groups of the respective concentrations.
The ratio of the developed blastocysts to the number of nuclear transfer oocytes used (blastocyst formation rate (%)) was determined. The ratio of the developed expanded blastocysts to the number of oocytes that initiated cleavage (i.e., developed into the 2-cell stage) among the reconstructed nuclear transfer oocytes (blastocyst formation rate (%)) was determined.
Nuclear transfer oocytes were produced by injecting nuclei from cumulus cells into enucleated oocytes according to the method as described in Example 1, cultured in KSOM medium containing TSA at a concentration of 5 nM for various periods of time (for 0, 24, 48 or 72 hour(s) from the initiation of activation), and then cultured in KSOM medium without TSA until 96 hours after the initiation of activation. Then, development into expanded blastocysts was observed and the blastocyst formation rate was determined. […]

[2] = test system: cloned embryos derived from cumulus cells; assay: Methylation of DNA and histone H3 Lys9 in cloned embryos; conditions: 500 nM TSA for 15 hours; FIG. 9
Method: Cloned embryos derived from cumulus cells were produced using oocytes from B6D2F1 mice produced according to the method as described in Example 1, and cultured in the presence or absence of 500 nM TSA for 15 hours (including the activation period). Then, the nuclear transfer embryos were fixed, and methylation of DNA (DNA metC) and methylation of histone H3 Lys9 (H3K9 trimet) were examined using antibodies against the respective antigens. Furthermore, DNA was stained with DAPI. 15 cloned embryos were used for each group. The results are shown in FIG. 9 along with the merged images (Merge).

[3] = test system: oocytes injected with nuclear domains of round spermatids (ROSI); assay: Paternal genome DNA methylation, spermatid injection (ROSI); conditions: 500 nM TSA
Method: The oocytes injected with the nuclear domains of round spermatids obtained by ROSI were cultured for 20 hours in the presence of 20 ng/ml of demecolcine in a medium containing 10 μM 5-azacytidine (5-aza) or 500 nM TSA as an anti-methylation agent. Similarly, injection of mature sperms was carried out (ICSI (intracytoplasmic sperm injection)). Specifically, heads of sperms were separated from the tails by applying pulses to the head-tail junctions by means of a piezo-driven pipette (PrimeTech), and injected into oocytes. The oocytes were not subjected to activation in this case.
The cultured oocytes injected with nuclei were fixed in PBS containing 4% paraformaldehyde at 4° C. overnight, washed in PBS containing 0.1% polyvinyl alcohol (PVA), and blocked in PBS containing 3% bovine serum albumin (BSA) and 0.2% Triton X-100 at 4° C. overnight. Subsequent steps were carried out at room temperature. The fixed oocytes injected with nuclei were permeabilized by treating with 0.2% Triton X-100 in PBS at room temperature. The oocytes were then treated with 2N HCl at room temperature for 50 minutes, neutralized in 100 mM Tris-HCl buffer (pH 8.0) (Non-patent Document 15), and extensively washed with PBS containing 1% BSA.
Next, incubation. with an anti-5-methylcytidine antibody (Eurogentec) in PBS containing 0.1% PVA was carried out for 2 to 3 hours. After extensively being washed, oocytes were stained with Alexa Flour-488 secondary antibody (Molecular Probes), stained with 5 μg/ml 4′,6′-diamidino-2-phenylindole (DAPI) for 30 minutes, and mounted using Vectashield (Vector Laboratory). The specimens were observed using Olympus BX51 microscope (Olympus). All images were captured with DP70 Olympus digital camera using Olympus Analysis software to apply colors to DAPI-stained DNA and merged images.
For quantitative analysis of pronuclear DNA methylation levels, fluorescence images were subjected to densitometric analysis using the program Image-J from the National Institute of Health (http://rsb.info.nih.gov/ij/). For each pronucleus, the relative intensity of methylation of the paternal genome was calculated as a percentage of the fluorescence intensity of the maternal genome. In Table 3, data with (b) and without (a) anti-methylation agent were statistically analyzed by Scheffe tests for multiple mean comparisons using the statistical program SPSS version 12.0 (SPSS Inc.). All percentile data were subjected to arcsine transformation prior to the statistical analysis.

With CC(/C=C/C(=O)NO)=C\[C@@H](C)C(=O)c1ccc(N(C)C)cc1 [TSA, trichostatin A] the “blastocyst development rate compared with the case without TSA” value ([1]; TSA 5 nM for 24 or 48 hours from initiation of activation, FIG. 4) was “increased”, the “blastocyst development rate among treatment periods” value ([1]; TSA 5 nM for 10 hours after initiation of activation, FIG. 5) was “highest” and the “increase in blastocyst development rate” value ([1]; TSA 5 nM for 24 hours from initiation of activation) was “about 4 fold”. The “development rate compared with the case without TSA” value ([1]; TSA 5 nM for 72 hours from initiation of activation) was “reduced”, the “blastocyst formation rate compared with the case without TSA” value ([1]; TSA 5, 50 or 500 nM, 20 hours after initiation of activation, observed at 96 hours, FIG. 2) was “increased” and the “methylation of DNA and histone H3 Lys9 in other chromosomal portions” value [2] was “reduction in methylation of both was observed”. For the same compound, the “methylation of DNA and histone H3 Lys9 in the pericentromeric region” value [2] was “prominent reduction was not observed”, the “majority of the methylation of the paternal genome, response to TSA treatment” value [3] was “sensitive” and the “methylation of the maternal genome, response to TSA treatment” value [3] was “resistant”. The “methylation of DNA in the pericentromeric region, response to TSA” value ([3]; region with high methylation of histone H3 Lys9) was “resistant” and the “Ratio of methylation level of paternal genome to maternal genome (%)” value ([3]; Spermatid (ROSI), 20 hours) was 42.5^b %.
